Laboratory results published in patent US8192962B2, “Processes for detecting toxic substances” (Daikin Industries, Ltd., priority 2001, dated 2012).

Test system: DNA repair protein genes
Experiment: DNA chip mRNA expression in yeast, DNA repair protein genes (Table 3)
Type: cell-based, Saccharomyces cerevisiae S288C
Settings: incubated two hours, concentrations as in the 1st table
Method in brief: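 First, S288C yeast grown in YPD at 25° C. are dosed in log phase with one toxicant (growth-inhibiting, not lethal) for 2 h. Next, total RNA is extracted and poly(A) mRNA isolated and reverse-transcribed with Cy3/Cy5-dUTP. Finally, whole-genome chip fluorescence is read relative to unexposed cells.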

Structure (SMILES): COc1cc(CNC(=O)CCCCC=CC(C)C)ccc1O [(12), 8-methyl-N-vanillyl-6-nonenamide]
- The level of expressed mRNA in the presence of chemical substance/The level of expressed mRNA in the absence of chemical substance (yeast gene YAL015C): 1.0
- The level of expressed mRNA in the presence of chemical substance/The level of expressed mRNA in the absence of chemical substance (yeast gene YAR007C): 0.9
- The level of expressed mRNA in the presence of chemical substance/The level of expressed mRNA in the absence of chemical substance (yeast gene YBL019W): 0.8
- The level of expressed mRNA in the presence of chemical substance/The level of expressed mRNA in the absence of chemical substance (yeast gene YBR073W): 0.9
- The level of expressed mRNA in the presence of chemical substance/The level of expressed mRNA in the absence of chemical substance (yeast gene YBR272C): 0.5
- The level of expressed mRNA in the presence of chemical substance/The level of expressed mRNA in the absence of chemical substance (yeast gene YCR014C): 0.7
- The level of expressed mRNA in the presence of chemical substance/The level of expressed mRNA in the absence of chemical substance (yeast gene YDL017W): 0.8
- The level of expressed mRNA in the presence of chemical substance/The level of expressed mRNA in the absence of chemical substance (yeast gene YDL059C): 1.3
- The level of expressed mRNA in the presence of chemical substance/The level of expressed mRNA in the absence of chemical substance (yeast gene YDL200C): 1.1
- The level of expressed mRNA in the presence of chemical substance/The level of expressed mRNA in the absence of chemical substance (yeast gene YDR054C): 1.0
- The level of expressed mRNA in the presence of chemical substance/The level of expressed mRNA in the absence of chemical substance (yeast gene YDR369C): 0.9
- The level of expressed mRNA in the presence of chemical substance/The level of expressed mRNA in the absence of chemical substance (yeast gene YEL019C): 1.0
- The level of expressed mRNA in the presence of chemical substance/The level of expressed mRNA in the absence of chemical substance (yeast gene YEL037C): 1.1
- The level of expressed mRNA in the presence of chemical substance/The level of expressed mRNA in the absence of chemical substance (yeast gene YER162C): 0.4
- The level of expressed mRNA in the presence of chemical substance/The level of expressed mRNA in the absence of chemical substance (yeast gene YFL014W): 4.3
- The level of expressed mRNA in the presence of chemical substance/The level of expressed mRNA in the absence of chemical substance (yeast gene YGL058W): 1.3
- The level of expressed mRNA in the presence of chemical substance/The level of expressed mRNA in the absence of chemical substance (yeast gene YGL091C): 1.2
- The level of expressed mRNA in the presence of chemical substance/The level of expressed mRNA in the absence of chemical substance (yeast gene YGL127C): 1.4
- The level of expressed mRNA in the presence of chemical substance/The level of expressed mRNA in the absence of chemical substance (yeast gene YGL163C): 0.9
- The level of expressed mRNA in the presence of chemical substance/The level of expressed mRNA in the absence of chemical substance (yeast gene YGL249W): 0.8
- The level of expressed mRNA in the presence of chemical substance/The level of expressed mRNA in the absence of chemical substance (yeast gene YGR180C): 0.9
- The level of expressed mRNA in the presence of chemical substance/The level of expressed mRNA in the absence of chemical substance (yeast gene YGR231C): 1.3
- The level of expressed mRNA in the presence of chemical substance/The level of expressed mRNA in the absence of chemical substance (yeast gene YGR258C): 0.9
- The level of expressed mRNA in the presence of chemical substance/The level of expressed mRNA in the absence of chemical substance (yeast gene YHR164C): 1.2
- The level of expressed mRNA in the presence of chemical substance/The level of expressed mRNA in the absence of chemical substance (yeast gene YIL036W): 1.2
- The level of expressed mRNA in the presence of chemical substance/The level of expressed mRNA in the absence of chemical substance (yeast gene YIL072W): 1.1
- The level of expressed mRNA in the presence of chemical substance/The level of expressed mRNA in the absence of chemical substance (yeast gene YIL143C): 0.9
- The level of expressed mRNA in the presence of chemical substance/The level of expressed mRNA in the absence of chemical substance (yeast gene YIL153W): 1.0
- The level of expressed mRNA in the presence of chemical substance/The level of expressed mRNA in the absence of chemical substance (yeast gene YIR002C): 1.3
- The level of expressed mRNA in the presence of chemical substance/The level of expressed mRNA in the absence of chemical substance (yeast gene YJL026W): 1.0
- The level of expressed mRNA in the presence of chemical substance/The level of expressed mRNA in the absence of chemical substance (yeast gene YJR046W): 0.9
- The level of expressed mRNA in the presence of chemical substance/The level of expressed mRNA in the absence of chemical substance (yeast gene YJR052W): 1.1
- The level of expressed mRNA in the presence of chemical substance/The level of expressed mRNA in the absence of chemical substance (yeast gene YKL145W): 1.3
- The level of expressed mRNA in the presence of chemical substance/The level of expressed mRNA in the absence of chemical substance (yeast gene YLR103C): 1.6
- The level of expressed mRNA in the presence of chemical substance/The level of expressed mRNA in the absence of chemical substance (yeast gene YLR233C): 0.9
- The level of expressed mRNA in the presence of chemical substance/The level of expressed mRNA in the absence of chemical substance (yeast gene YLR288C): 0.6
- The level of expressed mRNA in the presence of chemical substance/The level of expressed mRNA in the absence of chemical substance (yeast gene YML032C): 0.9
- The level of expressed mRNA in the presence of chemical substance/The level of expressed mRNA in the absence of chemical substance (yeast gene YML058W): 0.9
- The level of expressed mRNA in the presence of chemical substance/The level of expressed mRNA in the absence of chemical substance (yeast gene YMR035W): 0.5
- The level of expressed mRNA in the presence of chemical substance/The level of expressed mRNA in the absence of chemical substance (yeast gene YMR072W): 0.8
- The level of expressed mRNA in the presence of chemical substance/The level of expressed mRNA in the absence of chemical substance (yeast gene YMR096W): 1.4
- The level of expressed mRNA in the presence of chemical substance/The level of expressed mRNA in the absence of chemical substance (yeast gene YMR284W): 0.6
- The level of expressed mRNA in the presence of chemical substance/The level of expressed mRNA in the absence of chemical substance (yeast gene YNL213C): 0.8
- The level of expressed mRNA in the presence of chemical substance/The level of expressed mRNA in the absence of chemical substance (yeast gene YNL250W): 1.4
- The level of expressed mRNA in the presence of chemical substance/The level of expressed mRNA in the absence of chemical substance (yeast gene YNL261W): 0.8
- The level of expressed mRNA in the presence of chemical substance/The level of expressed mRNA in the absence of chemical substance (yeast gene YNL312W): 0.9
- The level of expressed mRNA in the presence of chemical substance/The level of expressed mRNA in the absence of chemical substance (yeast gene YOL043C): 0.8
- The level of expressed mRNA in the presence of chemical substance/The level of expressed mRNA in the absence of chemical substance (yeast gene YOR005C): 0.9
- The level of expressed mRNA in the presence of chemical substance/The level of expressed mRNA in the absence of chemical substance (yeast gene YOR386W): 1.2
- The level of expressed mRNA in the presence of chemical substance/The level of expressed mRNA in the absence of chemical substance (yeast gene YPL022W): 0.7
- The level of expressed mRNA in the presence of chemical substance/The level of expressed mRNA in the absence of chemical substance (yeast gene YPL164C): 0.9
- The level of expressed mRNA in the presence of chemical substance/The level of expressed mRNA in the absence of chemical substance (yeast gene YPL194W): 0.9
- The level of expressed mRNA in the presence of chemical substance/The level of expressed mRNA in the absence of chemical substance (yeast gene YPR025C): 0.7

Structure (SMILES): CCCCC[C@H](O)CC(=O)CCc1ccc(O)c(OC)c1 [(13), gingerol]
- The level of expressed mRNA in the presence of chemical substance/The level of expressed mRNA in the absence of chemical substance (yeast gene YDL200C): 1.1
- The level of expressed mRNA in the presence of chemical substance/The level of expressed mRNA in the absence of chemical substance (yeast gene YEL019C): 1.0
- The level of expressed mRNA in the presence of chemical substance/The level of expressed mRNA in the absence of chemical substance (yeast gene YGL058W): 1.0
- The level of expressed mRNA in the presence of chemical substance/The level of expressed mRNA in the absence of chemical substance (yeast gene YIL072W): 1.4
- The level of expressed mRNA in the presence of chemical substance/The level of expressed mRNA in the absence of chemical substance (yeast gene YLR233C): 1.0
- The level of expressed mRNA in the presence of chemical substance/The level of expressed mRNA in the absence of chemical substance (yeast gene YLR288C): 0.7
- The level of expressed mRNA in the presence of chemical substance/The level of expressed mRNA in the absence of chemical substance (yeast gene YMR284W): 1.0
- The level of expressed mRNA in the presence of chemical substance/The level of expressed mRNA in the absence of chemical substance (yeast gene YNL312W): 0.7
- The level of expressed mRNA in the presence of chemical substance/The level of expressed mRNA in the absence of chemical substance (yeast gene YPL164C): 1.0
- The level of expressed mRNA in the presence of chemical substance/The level of expressed mRNA in the absence of chemical substance (yeast gene YPR025C): 1.1
